Results reported in patent US20260306492A1 (BRISTOL-MYERS SQUIBB COMPANY, priority 2023, published 2026).
Read-outs that look alike come from different tables or passages of the source.

Key:
[1] = cited from earlier work; for VTE prevention versus enoxaparin 40 mg once daily: orthopedic surgery, historical Phase 3; for bleeding: Phase 2 orthopedic surgery studies and with antiplatelets after an ACS
[2] = test system: participants undergoing primary unilateral elective TKR surgery; experiment: Total venous thromboembolism (VTE) in TKR patients, AXIOMATIC-TKR; format: in vivo, human; details: enoxaparin 40 mg once daily
[3] = test system: intrinsic and final common pathways of the coagulation cascade (aPTT); experiment: Activated partial thromboplastin time (aPTT), AXIOMATIC-TKR Phase II; format: in vivo, human; details: enoxaparin 40 mg QD sc
Description: As used herein, the term “activated partial thromboplastin time (aPTT)” refers to a measure of the intrinsic and final common pathways of the coagulation cascade. It represents the time, in seconds, for plasma to clot after addition of phospholipid, an intrinsic pathway activator, and calcium. […] The term ‘partial’ means phospholipid is present but no tissue factor. The normal and reference ranges vary depending on reagent and instrument combinations, particularly with the phospholipid composition.
In some embodiments, aPTT is measured as follows: Plasma samples are incubated with Actin FS aPTT assay reagent containing a standard amount of phospholipid and contact activator (ellagic acid) which activates the intrinsic coagulation pathway. After incubating for 3 minutes, calcium chloride is added to initiate coagulation and formation of a fibrin clot is measured optically. The time to clot formation (measured in seconds) is reported as the Activated Partial Thromboplastin Time (aPTT).
(§1) Assessment of the dose-response for the occurrence of any bleeding was a secondary objective.
(§2) PD analyses were performed on the PD analysis set, defined as subjects who had at least one valid blood sample drawn for PD. Descriptive statistics (N, mean, SD, median, range, CV (%) and IQ range) were used to summarize PD response at each nominal sampling time point by treatment group. Changes from baseline were summarized when applicable. PD response outside of limit of quantitation were not to be imputed and were to be noted in the summary statistics.

[4] = biological target: T1, Factor XI (Homo sapiens, UniProt P03951); experiment: FXI clotting activity (FXI:c), AXIOMATIC-TKR Phase II; format: in vivo; details: enoxaparin 40 mg QD sc
T1 construct: aPTT one-stage clotting with FXI-deficient plasma
T1 sequence (P03951 19-625): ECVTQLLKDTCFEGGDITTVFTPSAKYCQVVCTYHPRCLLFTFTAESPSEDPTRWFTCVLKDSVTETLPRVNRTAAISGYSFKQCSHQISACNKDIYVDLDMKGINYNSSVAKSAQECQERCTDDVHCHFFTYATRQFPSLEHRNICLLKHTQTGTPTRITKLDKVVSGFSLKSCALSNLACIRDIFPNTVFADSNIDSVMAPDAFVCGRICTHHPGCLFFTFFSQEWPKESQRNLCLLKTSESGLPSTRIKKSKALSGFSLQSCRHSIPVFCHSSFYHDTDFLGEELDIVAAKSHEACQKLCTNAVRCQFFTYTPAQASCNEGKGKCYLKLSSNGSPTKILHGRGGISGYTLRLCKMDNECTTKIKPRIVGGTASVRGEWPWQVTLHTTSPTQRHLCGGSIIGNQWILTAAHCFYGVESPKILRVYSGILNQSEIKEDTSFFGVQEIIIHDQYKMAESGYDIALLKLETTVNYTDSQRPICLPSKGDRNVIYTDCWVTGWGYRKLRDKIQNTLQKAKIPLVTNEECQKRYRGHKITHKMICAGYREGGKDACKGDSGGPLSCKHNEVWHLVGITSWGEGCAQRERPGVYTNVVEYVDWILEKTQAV
Method: As used herein, “Factor XI Clotting Activity” is determined utilizing an aPTT-based 1-stage clotting time assay. Serial dilutions of normal pooled plasma are mixed with FXI-depleted plasma and the clotting times are measured according to standard aPTT protocol, to establish a reference range. Subject test plasma is treated in the same way and compared with the reference plasma.
In some embodiments, the Factor XI Clotting Activity is measured as follows: Factor XI (FXI) activity is measured using a modification of the activated partial thromboplastin time (aPTT) using Actin FS (Siemens Healthcare) on the Siemens BCS®XP analyzer. […] The reference standard, at approximately 100%, is diluted by the BCS®XP analyzer in saline to generate pre-selected calibration levels of FXI. The calibration curve is plotted with FXI activity in percent (%) on the x-axis and clotting time in seconds on the y-axis. A log/lin regression curve fit is used. […] APTT reagent (Actin FS) is added and the mixture is incubated. Following incubation, calcium chloride is added to the mixture and the time to clot formation (measured optically) is compared to the time on the calibration curve. Samples are tested at the base dilution (1:10) prepared by the BCS®XP in saline.
as §1, §2

[5] = test system: thrombin generation; experiment: Thrombin Generation Assay (TGA), AXIOMATIC-TKR Phase II; format: in vivo, human; details: enoxaparin 40 mg QD sc
Description: As used herein, “Thrombin Generation Assay (TGA)” is a global coagulation assay that evaluates the thrombogenic capacity of a plasma sample and has been proposed that it may better reflect prothrombotic or hemorrhagic states than conventional clotting assays. In the traditional TGA, coagulation of citrated plasma is initiated through the extrinsic pathway by adding tissue factor, phospholipids, and calcium. For this study, in the in-vitro thrombin generation assay (TGA) using human platelet-rich plasma, and a kaolin slurry was used instead to initiate coagulation through the contact activation pathway. Thrombin generation is continuously monitored through the product released by cleavage of a thrombin-specific fluorogenic substrate. The generated thrombogram is used to determine several relevant parameters, including endogenous thrombin potential, defined as the area under the thrombin concentration vs. time curve. […]
as §2

## O=C(NC[C@H]1CN(c2ccc(N3CCOCC3=O)cc2)C(=O)O1)c1ccc(Cl)s1 [rivaroxaban]
[1]; 10 mg once daily
  VTE prevention versus enoxaparin 40 mg once daily: superior to enoxaparin 40 mg once daily
[1]
  bleeding: dose-related bleeding

## COc1ccc(-n2nc(C(N)=O)c3c2C(=O)N(c2ccc(N4CCCCC4=O)cc2)CC3)cc1 [apixaban]
[1]; 2.5 mg twice daily
  VTE prevention versus enoxaparin 40 mg once daily: superior to enoxaparin 40 mg once daily
[1]
  bleeding: dose-related bleeding

## enoxaparin
[2]
  total VTE rate: 21.4%
[3]; Day 1 2 h
  aPTT, measured value, median: 27.5 s
[3]; Day 1 4 h
  aPTT, measured value, median: 27.75 s
[3]; Day 2 Predose
  aPTT, measured value, median: 27.4 s
[3]; Day 4 4 h
  aPTT, measured value, median: 26.1 s
[3]; Day 4 Predose
  aPTT, measured value, median: 25.8 s
[3]; Day 10-14
  aPTT, measured value, median: 25.9 s
[4]; Day 1 4 h
  FXI:c, % change from baseline, mean: −7.24%
  FXI:c, % change from baseline, median: −7.24%
  FXI:c, measured value, mean: 1.06
  FXI:c, measured value, median: 1.07
[4]; Day 10-14
  FXI:c, % change from baseline, mean: 36.64%
  FXI:c, % change from baseline, median: 37.21%
  FXI:c, measured value, mean: 1.36
  FXI:c, measured value, median: 1.39
[5]; Day 1 2 h
  ETP Lag Time, measured value, median: 7.02 min
  ETP Peak Height, measured value, mean: 171.15 nmol/L
[5]; Day 1 4 h
  ETP Lag Time, measured value, mean: 8.39 min
  ETP Lag Time, measured value, median: 6.83 min
  ETP Peak Height, measured value, mean: 183.54 nmol/L
  ETP Peak Height, measured value, median: 160.49 nmol/L
[5]; Day 2 Predose
  ETP Lag Time, measured value, mean: 6.98 min
  ETP Lag Time, measured value, median: 5.7 min
  ETP Peak Height, measured value, mean: 232.14 nmol/L
  ETP Peak Height, measured value, median: 214.37 nmol/L
[5]; Day 4 4 h
  ETP Lag Time, measured value, mean: 8.16 min
  ETP Lag Time, measured value, median: 7.44 min
  ETP Peak Height, measured value, mean: 210.21 nmol/L
  ETP Peak Height, measured value, median: 196.02 nmol/L
[5]; Day 4 Predose
  ETP Lag Time, measured value, mean: 7.44 min
  ETP Lag Time, measured value, median: 5.96 min
  ETP Peak Height, measured value, mean: 250.47 nmol/L
  ETP Peak Height, measured value, median: 227.87 nmol/L
[5]; Day 10-14
  ETP Lag Time, measured value, mean: 11.18 min
  ETP Lag Time, measured value, median: 8.11 min
  ETP Peak Height, measured value, mean: 213.56 nmol/L
  ETP Peak Height, measured value, median: 201.82 nmol/L
